Test results as given in patent US20230008368A1, “IMIDAZOQUINOLINE SUBSTITUTED PHOSPHORIC ESTER AGONIST, AND PREPARATION THEREFOR AND APPLICATION THEREOF” (SUZHOU ZELGEN BIOPHARMACEUTICALS CO., LTD., priority 2019, published 2023).
Read-outs that look alike come from different tables or passages of the source.

Key:
[1] = molecular target: T1, hTLR7 (Homo sapiens, UniProt Q9NYK1); experiment: agonistic activity on hTLR7, HEK-Blue hTLR cells, SEAP reporter (QUANTI-Blue); assay type: cell-based; details: for TLR 7 selectivity TLR 8/TLR 7: ratio of TLR 8 EC50 to TLR 7 EC50
T1 construct: expressed in transfected cells; host or cells: HEK-Blue hTLR cells
T1 sequence (Q9NYK1 27-1049): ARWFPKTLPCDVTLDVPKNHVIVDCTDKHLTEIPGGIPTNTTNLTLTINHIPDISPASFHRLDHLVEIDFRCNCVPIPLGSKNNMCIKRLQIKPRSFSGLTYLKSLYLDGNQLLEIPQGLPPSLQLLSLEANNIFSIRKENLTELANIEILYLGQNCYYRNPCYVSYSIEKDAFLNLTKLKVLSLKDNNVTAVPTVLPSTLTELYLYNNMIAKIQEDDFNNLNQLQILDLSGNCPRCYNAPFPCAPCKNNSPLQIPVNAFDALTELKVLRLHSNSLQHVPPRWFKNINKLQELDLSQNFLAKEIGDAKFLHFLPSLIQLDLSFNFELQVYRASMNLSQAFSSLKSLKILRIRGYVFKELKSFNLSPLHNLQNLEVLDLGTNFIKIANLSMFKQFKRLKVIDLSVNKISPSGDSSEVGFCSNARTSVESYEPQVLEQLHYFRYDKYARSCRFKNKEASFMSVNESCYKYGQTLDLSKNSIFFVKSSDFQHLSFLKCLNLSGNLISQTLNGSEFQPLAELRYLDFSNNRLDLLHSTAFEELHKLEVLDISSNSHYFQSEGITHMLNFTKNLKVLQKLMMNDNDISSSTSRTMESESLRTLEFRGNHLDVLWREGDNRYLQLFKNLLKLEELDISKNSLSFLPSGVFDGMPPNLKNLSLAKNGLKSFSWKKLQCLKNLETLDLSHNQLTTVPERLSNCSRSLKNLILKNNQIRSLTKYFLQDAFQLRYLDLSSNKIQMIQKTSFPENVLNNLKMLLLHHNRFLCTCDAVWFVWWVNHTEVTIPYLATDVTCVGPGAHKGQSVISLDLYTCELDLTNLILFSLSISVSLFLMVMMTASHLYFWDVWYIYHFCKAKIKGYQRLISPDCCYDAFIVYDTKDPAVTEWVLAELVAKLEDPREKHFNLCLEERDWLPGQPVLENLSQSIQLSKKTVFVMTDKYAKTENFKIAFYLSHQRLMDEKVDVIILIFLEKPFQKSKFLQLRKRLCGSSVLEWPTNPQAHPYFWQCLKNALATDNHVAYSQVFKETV
Description: (§1) Experiments on the agonistic activity of TLR7 and TLR8 by the compounds in vitro
(§2) The compound was diluted with 1:3 series with DMSO for 9 concentration points, duplicated wells, and added to 96-well plate with Echo.
(§3) The HEK-Blue™ hTLR cells were suspended in the culture medium and then seeded into a 96-well plate containing the compound at a density of 50,000 cells/well. Cells were cultured at 5% CO2 and 37° C. for 1 day. The final concentration of DMSO in the cell culture medium was 0.5%.
(§4) 20 uL cell culture supernatant was taken, according to the QUANTI-Blue instructions, the reporter gene SEAP in the supernatant was detected, and the OD650 signal value was read with a microplate reader to calculate the agonist activity of the compound on the hTLR7 and hTLR8.
(§5) The EC50 and CC50 values of the compound were calculated by GraphPad Prism software, and the fitting curve was plotted.

[2] = molecular target: T2, hTLR8 (Homo sapiens, UniProt Q9NR97); experiment: agonistic activity on hTLR8, HEK-Blue hTLR cells, SEAP reporter (QUANTI-Blue); assay type: cell-based; details: for EC50: SEAP reporter, OD650, cultured 1 day; for TLR 8 selectivity TLR 7/TLR 8: ratio of TLR 7 EC50 to TLR 8 EC50
T2 construct: expressed in transfected cells; host or cells: HEK-Blue hTLR cells
T2 sequence (Q9NR97 27-1041): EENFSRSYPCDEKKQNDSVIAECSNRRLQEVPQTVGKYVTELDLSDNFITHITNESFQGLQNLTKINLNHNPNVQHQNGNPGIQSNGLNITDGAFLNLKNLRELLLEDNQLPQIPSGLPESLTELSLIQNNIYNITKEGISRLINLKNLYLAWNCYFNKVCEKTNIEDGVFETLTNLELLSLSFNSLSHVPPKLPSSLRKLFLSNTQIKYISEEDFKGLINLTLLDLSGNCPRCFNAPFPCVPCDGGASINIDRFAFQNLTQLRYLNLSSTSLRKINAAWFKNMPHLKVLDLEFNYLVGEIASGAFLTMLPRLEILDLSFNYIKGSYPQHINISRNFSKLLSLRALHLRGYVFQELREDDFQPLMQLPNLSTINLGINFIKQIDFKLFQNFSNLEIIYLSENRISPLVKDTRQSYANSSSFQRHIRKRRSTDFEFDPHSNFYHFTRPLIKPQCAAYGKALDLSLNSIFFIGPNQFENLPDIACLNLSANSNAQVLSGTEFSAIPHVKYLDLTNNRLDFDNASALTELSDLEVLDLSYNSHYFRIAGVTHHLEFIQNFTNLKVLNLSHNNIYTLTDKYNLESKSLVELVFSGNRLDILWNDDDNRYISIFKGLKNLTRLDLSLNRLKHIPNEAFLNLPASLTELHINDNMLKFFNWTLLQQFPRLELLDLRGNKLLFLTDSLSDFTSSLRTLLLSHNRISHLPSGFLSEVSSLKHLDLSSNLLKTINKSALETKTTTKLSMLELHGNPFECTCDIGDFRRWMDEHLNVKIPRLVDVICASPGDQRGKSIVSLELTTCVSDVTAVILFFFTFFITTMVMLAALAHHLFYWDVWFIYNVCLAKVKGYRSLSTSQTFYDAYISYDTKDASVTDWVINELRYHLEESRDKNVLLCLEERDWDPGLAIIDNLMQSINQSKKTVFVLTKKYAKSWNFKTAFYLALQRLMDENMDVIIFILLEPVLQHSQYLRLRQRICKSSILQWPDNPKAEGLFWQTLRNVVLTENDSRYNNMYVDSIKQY
Description: as §1, §2, §3, §4, §5

[3] = cytotoxicity, cell viability by CellTiter-Glo; assay type: cell-based, human; details: human, HEK-Blue hTLR cells, cultured 1 day
Description: as §2, §3
According to the CellTiter-Glo instructions, the cell viability was measured, and the Luminescence signal value was read by the microplate reader, which was used to calculate the cytotoxicity of the compound.
as §5

[4] = HEK-Blue hTLR cells, SEAP reporter, OD650, cultured 1 day, read-out: TLR 7 EC50
[5] = HEK-Blue hTLR cells, read-out: TLR 8 EC50
[6] = TLR 8 EC50, HEK-Blue hTLR cells

| Structure (SMILES) | EC50 [1, 4] [µM] | TLR 7 selectivity TLR 8/TLR 7 [1] | EC50 [2, 5] [nM] | CC50 at 1 day [3] [µM] | EC50 [1] [µM] | EC50 [2, 6] [nM] | TLR 8 selectivity TLR 7/TLR 8 [2] |
| --- | --- | --- | --- | --- | --- | --- | --- |
| CCOCc1nc2c(N)nc3ccccc3c2n1C[C@@H](C)O (single isomer, unassigned) [Example 1B] | 1.27 | 2.8 | 3600 | > 30 | – | – | – |
| CCOCc1nc2c(N)nc3ccccc3c2n1C[C@@H](C)O[P@@](=O)(N[C@@H](C)C(=O)OC(C)C)Oc1ccccc1 (single isomer, unassigned) [Example 2A] | – | – | – | > 30 | 2.8 | 881 | 3.2 |
| CCOCc1nc2c(N)nc3ccccc3c2n1C[C@H](C)O[P@@](=O)(N[C@@H](C)C(=O)OC(C)C)Oc1ccccc1 (single isomer, unassigned) [Example 2B] | – | – | – | > 30 | 3.03 | 77 | 39.4 |
| CCOCc1nc2c(N)nc3ccccc3c2n1C[C@@H](C)O[P@](=O)(N[C@@H](C)C(=O)OC(C)C)Oc1ccccc1 (single isomer, unassigned) [Example 3A] | > 30 | – | 9080 | > 30 | – | – | >3.3 |
| CCOCc1nc2c(N)nc3ccccc3c2n1C[C@H](C)O[P@](=O)(N[C@@H](C)C(=O)OC(C)C)Oc1ccccc1 (single isomer, unassigned) [Example 3B] | 3.61 | – | 1860 | > 30 | – | – | 1.9 |
| CCOCc1nc2c(N)nc3ccccc3c2n1C[C@@H](C)O[P@@](=O)(N[C@@H](C)C(=O)OC(C)C)Oc1cccc2ccccc12 (single isomer, unassigned) [Example 5A] | > 10 | – | 9.2 | 17.9 | – | – | >1086 |
| CCOCc1nc2c(N)nc3ccccc3c2n1C[C@@H](C)O[P@@](=O)(N[C@@H](C)C(=O)OC(C)C)Oc1ccc2ccccc2c1 (single isomer, unassigned) [Example 6A] | 7.29 | – | 5.6 | > 30 | – | – | 1301 |
| CCOCc1nc2c(N)nc3ccccc3c2n1C[C@@H](C)O[P@@](=O)(N[C@@H](C)C(=O)OC(C)C)Oc1ccc(C)cc1 (single isomer, unassigned) [Example 9A] | 9.5 | – | 7.9 | > 30 | – | – | 1202 |
| CCOCc1nc2c(N)nc3ccccc3c2n1C[C@@H](C)O[P@@](=O)(N[C@@H](C)C(=O)OC(C)C)Oc1cccc(Cl)c1 (single isomer, unassigned) [Example 11A] | 5.83 | – | 9.1 | > 30 | – | – | 640 |
| CCOCc1nc2c(N)nc3ccccc3c2n1C[C@@H](C)O[P@@](=O)(N[C@@H](C)C(=O)OC(C)C)Oc1ccc(Cl)cc1 (single isomer, unassigned) [Example 12A] | 6.07 | – | 3.5 | > 30 | – | – | 1735 |
| CCOCc1nc2c(N)nc3ccccc3c2n1C[C@@H](C)O[P@@](=O)(N[C@@H](C)C(=O)OC(C)(C)C)Oc1ccccc1 (single isomer, unassigned) [Example 14A] | 15.8 | – | 366 | > 30 | – | – | 43 |
| CCOCc1nc2c(N)nc3ccccc3c2n1C[C@@H](C)O[P@@](=O)(N[C@@H](C)C(=O)OCc1ccccc1)Oc1ccccc1 (single isomer, unassigned) [Example 16A] | 5.83 | – | 35.4 | > 30 | – | – | 165 |
| CCOCc1nc2c(N)nc3ccccc3c2n1C[C@@H](C)O[P@@](=O)(N[C@@H](C)C(=O)OC(C)(C)C)Oc1ccc(C)cc1 (single isomer, unassigned) [Example 17A] | > 30 | – | 133 | > 30 | – | – | >226 |
| CCOCc1nc2c(N)nc3ccccc3c2n1C[C@@H](C)O[P@@](=O)(N[C@@H](C)C(=O)OC(C)(C)C)Oc1ccc(OC)cc1 (single isomer, unassigned) [Example 18A] | > 30 | – | 203 | > 30 | – | – | >148 |
| CCOCc1nc2c(N)nc3ccccc3c2n1C[C@@H](C)O[P@@](=O)(N[C@@H](C)C(=O)OC(C)(C)C)Oc1ccc(Cl)cc1 (single isomer, unassigned) [Example 19A] | > 30 | – | 58.5 | > 30 | – | – | >513 |
| CCOCc1nc2c(N)nc3ccccc3c2n1C[C@H](C)O [Example 1A] | 0.44 | 2.5 | 1080 | > 30 | – | – | – |
| CCOCc1nc2c(N)nc3ccccc3c2n1CC(C)O (centres unmarked) [Example 1] | 0.666 | 2.4 | 1590 | > 30 | – | – | – |
